± gives the expanded uncertainty stated by the source.
Conditions: Fluid (supercritical or subcritical phases), Cylindrical cavity resonance method

Structure (SMILES): C[Si]1(C)O[Si](C)(C)O[Si](C)(C)O[Si](C)(C)O[Si](C)(C)O1 [decamethylcyclopentasiloxane]
- speed of sound (485 K, 35.39 kPa): 101.91 ± 0.52 m/s
- speed of sound (485 K, 43.63 kPa): 101.14 ± 0.52 m/s
- speed of sound (485 K, 49.43 kPa): 100.67 ± 0.51 m/s
- speed of sound (485 K, 55.24 kPa): 100.36 ± 0.51 m/s
- speed of sound (485 K, 63.6 kPa): 99.2 ± 0.51 m/s
- speed of sound (485 K, 64.42 kPa): 99.13 ± 0.51 m/s
- speed of sound (485 K, 74.85 kPa): 98.38 ± 0.5 m/s
- speed of sound (485 K, 82.92 kPa): 97.28 ± 0.5 m/s
- speed of sound (485 K, 85.12 kPa): 97.17 ± 0.5 m/s
- speed of sound (500 K, 22.13 kPa): 104.94 ± 0.53 m/s
- speed of sound (500 K, 22.48 kPa): 104.92 ± 0.53 m/s
- speed of sound (500 K, 26.3 kPa): 104.68 ± 0.53 m/s
- speed of sound (500 K, 31.33 kPa): 104.22 ± 0.53 m/s
- speed of sound (500 K, 32.27 kPa): 104.14 ± 0.53 m/s
- speed of sound (500 K, 33.93 kPa): 103.96 ± 0.53 m/s
- speed of sound (500 K, 39.9 kPa): 103.53 ± 0.53 m/s
- speed of sound (500 K, 42.7 kPa): 103.27 ± 0.53 m/s
- speed of sound (500 K, 47.88 kPa): 102.87 ± 0.52 m/s
- speed of sound (500 K, 51.58 kPa): 102.58 ± 0.52 m/s
- speed of sound (500 K, 55.42 kPa): 102.2 ± 0.52 m/s
- speed of sound (500 K, 64.64 kPa): 101.5 ± 0.52 m/s
- speed of sound (500 K, 64.96 kPa): 101.44 ± 0.52 m/s
- speed of sound (500 K, 73.64 kPa): 100.81 ± 0.51 m/s
- speed of sound (500 K, 74.95 kPa): 100.63 ± 0.51 m/s
- speed of sound (500 K, 78.98 kPa): 100.22 ± 0.51 m/s
- speed of sound (500 K, 85.9 kPa): 99.5 ± 0.51 m/s
- speed of sound (500 K, 95.37 kPa): 98.56 ± 0.5 m/s
- speed of sound (500 K, 105.42 kPa): 97.6 ± 0.5 m/s
- speed of sound (500 K, 116.6 kPa): 96.56 ± 0.49 m/s
- speed of sound (510 K, 34.55 kPa): 105.2 ± 0.54 m/s
- speed of sound (510 K, 43.26 kPa): 104.68 ± 0.53 m/s
- speed of sound (510 K, 51.27 kPa): 104.86 ± 0.53 m/s
- speed of sound (510 K, 57.1 kPa): 103.49 ± 0.53 m/s
- speed of sound (510 K, 62.78 kPa): 103.98 ± 0.53 m/s
- speed of sound (510 K, 72.53 kPa): 102.37 ± 0.52 m/s
- speed of sound (510 K, 82.51 kPa): 101.58 ± 0.52 m/s
- speed of sound (510 K, 89.89 kPa): 100.87 ± 0.52 m/s
- speed of sound (510 K, 92.75 kPa): 100.75 ± 0.51 m/s
- speed of sound (510 K, 103.28 kPa): 99.89 ± 0.51 m/s
- speed of sound (510 K, 110.69 kPa): 99.98 ± 0.51 m/s

Structure (SMILES): C[Si]1(C)O[Si](C)(C)O[Si](C)(C)O[Si](C)(C)O1 [octamethylcyclotetrasiloxane]
- speed of sound (450 K, 38.9 kPa): 110.35 ± 0.45 m/s
- speed of sound (450 K, 46.7 kPa): 109.66 ± 0.45 m/s
- speed of sound (450 K, 57.41 kPa): 108.8 ± 0.45 m/s
- speed of sound (450 K, 62.89 kPa): 108.3 ± 0.45 m/s
- speed of sound (450 K, 69.33 kPa): 107.73 ± 0.44 m/s
- speed of sound (465 K, 31.29 kPa): 113.04 ± 0.46 m/s
- speed of sound (465 K, 32.63 kPa): 112.99 ± 0.46 m/s
- speed of sound (465 K, 36.51 kPa): 112.75 ± 0.46 m/s
- speed of sound (465 K, 40.99 kPa): 112.32 ± 0.46 m/s
- speed of sound (465 K, 46.84 kPa): 111.94 ± 0.46 m/s
- speed of sound (465 K, 47.85 kPa): 111.91 ± 0.46 m/s
- speed of sound (465 K, 49.18 kPa): 111.72 ± 0.46 m/s
- speed of sound (465 K, 57.21 kPa): 111.2 ± 0.46 m/s
- speed of sound (465 K, 58.99 kPa): 110.98 ± 0.46 m/s
- speed of sound (465 K, 61.46 kPa): 110.82 ± 0.46 m/s
- speed of sound (465 K, 68.51 kPa): 110.33 ± 0.45 m/s
- speed of sound (465 K, 70.69 kPa): 110.06 ± 0.45 m/s
- speed of sound (465 K, 73.59 kPa): 109.87 ± 0.45 m/s
- speed of sound (465 K, 74.87 kPa): 109.83 ± 0.45 m/s
- speed of sound (465 K, 77.48 kPa): 109.53 ± 0.45 m/s
- speed of sound (465 K, 81.72 kPa): 109.28 ± 0.45 m/s
- speed of sound (465 K, 87.87 kPa): 108.72 ± 0.45 m/s
- speed of sound (465 K, 92.89 kPa): 108.29 ± 0.45 m/s
- speed of sound (465 K, 97.68 kPa): 107.96 ± 0.44 m/s
- speed of sound (465 K, 101.01 kPa): 107.53 ± 0.44 m/s
- speed of sound (465 K, 105.11 kPa): 107.28 ± 0.44 m/s
- speed of sound (465 K, 106.95 kPa): 107.18 ± 0.44 m/s
- speed of sound (465 K, 111.4 kPa): 106.69 ± 0.44 m/s
- speed of sound (465 K, 116.93 kPa): 106.3 ± 0.44 m/s
- speed of sound (465 K, 121.67 kPa): 105.76 ± 0.43 m/s
- speed of sound (465 K, 123.48 kPa): 105.66 ± 0.43 m/s
- speed of sound (480 K, 42.7 kPa): 114.02 ± 0.47 m/s
- speed of sound (480 K, 54.67 kPa): 113.2 ± 0.46 m/s
- speed of sound (480 K, 65.08 kPa): 112.48 ± 0.46 m/s
- speed of sound (480 K, 71.3 kPa): 112.04 ± 0.46 m/s
- speed of sound (480 K, 85.5 kPa): 111.07 ± 0.46 m/s
- speed of sound (480 K, 92.46 kPa): 110.5 ± 0.45 m/s
- speed of sound (480 K, 109.21 kPa): 109.24 ± 0.45 m/s
- speed of sound (480 K, 118.88 kPa): 108.49 ± 0.45 m/s
- speed of sound (480 K, 129.21 kPa): 107.67 ± 0.44 m/s
- speed of sound (480 K, 140.39 kPa): 106.77 ± 0.44 m/s
- speed of sound (480 K, 152.36 kPa): 105.77 ± 0.43 m/s
- speed of sound (480 K, 165.42 kPa): 104.64 ± 0.43 m/s
- speed of sound (495 K, 27.45 kPa): 117.14 ± 0.48 m/s
- speed of sound (495 K, 36.2 kPa): 116.66 ± 0.48 m/s
- speed of sound (495 K, 47.54 kPa): 115.98 ± 0.47 m/s
- speed of sound (495 K, 143.41 kPa): 109.74 ± 0.45 m/s
- speed of sound (495 K, 159.7 kPa): 108.43 ± 0.45 m/s
- speed of sound (495 K, 160.4 kPa): 108.39 ± 0.45 m/s
- speed of sound (495 K, 174.53 kPa): 107.35 ± 0.44 m/s
- speed of sound (495 K, 186.64 kPa): 106.44 ± 0.44 m/s
- speed of sound (495 K, 198.61 kPa): 105.49 ± 0.43 m/s
- speed of sound (495 K, 224.52 kPa): 103.41 ± 0.43 m/s
